Test results as given in publication PMC5078989, “Targeted inhibition of the COP9 signalosome for treatment of cancer” (Nature Communications, 2016).

Test system: panel of cancer cell lines
Test: Cell viability (CellTiter-Glo) dose-response across cancer cell line panel;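 also: after 72 h compound incubation with CellTiter-Glo ATP readout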
Assay type: cell-based, human
Conditions: Homo sapiens
Excerpt: Next, we explored the effect of CSN5 inhibition on the viability of cancer cells. To obtain a comprehensive picture, we generated dose–response curves with a CSN5 inhibitor across more than 500 cancer cell lines in a previously described standardized setting[47] (Supplementary Data 1).
A standardized CellTiter-Glo Assay (Promega #G7570) based on the quantification of ATP was applied according to the manufacturer's protocol to measure the amount of viable cells in culture. In brief, cells were seeded into 384-well plates at optimal density for each cell line. After 4 h, compounds were added at different concentrations in growth medium and incubated for another 72 h in a humidifying chamber at 37 °C and 5% CO2. […] EC50 values were calculated from the plot of percentage of inhibition versus inhibitor concentration using the nonlinear regression analysis software Origin 7.5SR6 (OriginLab Corp.).

- EC50 (HEC-251, HEC-251): 8160 nM
- EC50 (HEC-265): 20000 nM
- EC50 (HEL): 190 nM
- EC50 (HEL 92.1.7, HEL 92.1.7): 94.8 nM
- EC50 (HEY A8, Hey-A8): 114 nM
- EC50 (HL-60, HL-60): 361 nM
- EC50 (HLC-1): 981 nM
- EC50 (HLE): 454 nM
- EC50 (HLF): 739 nM
- EC50 (HMC-1-8): 154 nM
- EC50 (HPAC): 830 nM
- EC50 (HPBALL, HPB-ALL): 333 nM
- EC50 (HRT-18, HRT-18): 1860 nM
- EC50 (HSC-2, HSC-2): 146 nM
- EC50 (HSC-3, HSC-3): 292 nM
- EC50 (HSC-4, HSC-4): 268 nM
- EC50 (HT-29, HT-29): 2230 nM
- EC50 (HT-1080, HT-1080): 215 nM
- EC50 (Hep3B): 2560 nM
- EC50 (Hep 3B2.1-7): 4280 nM
- EC50 (Hs 294T): 1860 nM
- EC50 (Hs 695T): 719 nM
- EC50 (Hs766T, Hs 766T): 18800 nM
- EC50 (Hs 852.T): 804 nM
- EC50 (Hs 936.T): 202 nM
- EC50 (Hs 939.T): 600 nM
- EC50 (Hs 944.T): 898 nM
- EC50 (HuH-6, HuH-6): 4960 nM
- EC50 (HuP-T4, HUP-T4): 360 nM
- EC50 (Huh-7, HuH-7): 723 nM
- EC50 (IGR-37, IGR-37): 613 nM
- EC50 (IGR-39, IGR-39): 545 nM
- EC50 (IGROV-1, IGROV1): 399 nM
- EC50 (IPC-298, IPC-298): 716 nM
- EC50 (IST-MES2): 421 nM
- EC50 (Ishikawa): 213 nM
- EC50 (J82, J82): 1650 nM
- EC50 (JHH7, JHH-7): 12200 nM
- EC50 (JHH-4, JHH-4): 594 nM
- EC50 (JHOM-1): 1300 nM
- EC50 (JHOS-2): 274 nM
- EC50 (JHUEM-2): 952 nM
- EC50 (JHUEM-3): > 30000 nM
- EC50 (JIMT-1, JIMT-1): 8670 nM
- EC50 (JL-1): 2290 nM
- EC50 (JU77): 304 nM
- EC50 (JVM-2, JVM-2): 83.5 nM
- EC50 (K029AX): 1740 nM
- EC50 (KARPAS-422, KARPAS-422): 654 nM
- EC50 (KATO III): 711 nM
- EC50 (KBM-7, KBM-7): 106 nM
- EC50 (KCI-MOH1): 2000 nM
- EC50 (KE-97, KE-97): 210 nM
- EC50 (KLE): 897 nM
- EC50 (KM12, KM12): 1570 nM
- EC50 (KMM-1, KMM-1): 462 nM
- EC50 (KMRC-1, KMRC-1): 435 nM
- EC50 (KMRC-20): 1520 nM
- EC50 (KMS-11, KMS-11): 426 nM
- EC50 (KNS-42, KNS-42): 282 nM
- EC50 (KNS-60): 486 nM
- EC50 (KNS-62, KNS-62): 398 nM
- EC50 (KP-1N): 15600 nM
- EC50 (KP-1NL): 13600 nM
- EC50 (KP-2): 4050 nM
- EC50 (KP-4, KP4): 828 nM
- EC50 (KS-1): 336 nM
- EC50 (KU-19-19, KU-19-19): 922 nM
- EC50 (KURAMOCHI): 1250 nM
- EC50 (KYSE-30, KYSE-30): 356 nM
- EC50 (KYSE-70, KYSE-70): 1060 nM
- EC50 (KYSE-150, KYSE-150): 725 nM
- EC50 (KYSE-180, KYSE-180): 1290 nM
- EC50 (Kasumi-3, Kasumi3): 292 nM
- EC50 (Kasumi-6): 286 nM
- EC50 (L3.3): 120 nM
- EC50 (L-363, L-363): 139 nM
- EC50 (L-428, L-428): 3080 nM
- EC50 (LC-1/sq-SF): 926 nM
- EC50 (LC-1F): 586 nM
- EC50 (LC-2-ad, LC2/ad): 540 nM
- EC50 (LCLC-103H): 573 nM
- EC50 (LIM1899): 2310 nM
- EC50 (LIM2099): 440 nM
- EC50 (LIM2405): 305 nM
- EC50 (LIM2550): 53.5 nM
- EC50 (LMSU): 100 nM
- EC50 (LN-18, LN-18): 178 nM
- EC50 (LO68): 3750 nM
- EC50 (LOU-NH91, LOU-NH91): 296 nM
- EC50 (LOX IMVI): 262 nM
- EC50 (LP-1, LP-1): 536 nM
- EC50 (LS180, LS 180): 175 nM
- EC50 (LUDLU-1, LUDLU-1): 2510 nM
- EC50 (Li-7, Li-7): 827 nM
- EC50 (Lu-65, LU65): 922 nM
- EC50 (Lu-99, LU99): 98.5 nM
- EC50 (M-07e): 1020 nM
- EC50 (MCAS): 529 nM
- EC50 (MCC13): 4250 nM
- EC50 (MCC14/2): 36.1 nM
- EC50 (MCC26): 652 nM
- EC50 (MDA-MB-134-VI): 678 nM
- EC50 (MDA-MB-157, MDA-MB-157): 8450 nM
- EC50 (MDA-MB-175-VII): 448 nM
- EC50 (MDA-MB-231, MDA-MB-231): 422 nM
- EC50 (MDA-MB-415, MDA-MB-415): > 30000 nM
- EC50 (MDA-MB-435S): 3550 nM
- EC50 (MDA-MB-436, MDA-MB-436): 1430 nM
- EC50 (MDA-MB-453, MDA-MB-453): 106 nM
- EC50 (MDA-MB-468, MDA-MB-468): 396 nM
- EC50 (MDST8, MDST8): 311 nM
- EC50 (ME-180, ME180): 177 nM
- EC50 (MEC1, MEC-1): 302 nM
- EC50 (MEL-HO): 873 nM
- EC50 (MEL-JUSO): 364 nM
- EC50 (MES-SA): 932 nM
- EC50 (MFE-280, MFE-280): 364 nM
- EC50 (MFE-296, MFE-296): 109 nM
- EC50 (MFE-319): 3660 nM
- EC50 (MFM-223, MFM223): 105 nM
- EC50 (MG-63, MG-63): 261 nM
- EC50 (MIA PaCa-2, MIA PaCa-2): 518 nM
- EC50 (MINO): 13.1 nM
- EC50 (MKN-1, MKN1): 1020 nM
- EC50 (MKN-45, MKN-45): 363 nM
- EC50 (ML-2, ML-2): 57.1 nM
- EC50 (MM127): 325 nM
- EC50 (MM138): 251 nM
- EC50 (MM170): 334 nM
- EC50 (MM253): 35.5 nM
- EC50 (MM370): 273 nM
- EC50 (MM383): 281 nM
- EC50 (MM386): 950 nM
- EC50 (MM415): 675 nM
- EC50 (MM426): 754 nM
- EC50 (MM466): 2560 nM
- EC50 (MM473, MM473): 589 nM
- EC50 (MM485): 820 nM
- EC50 (MM537): 84.6 nM
- EC50 (MM576): 511 nM
- EC50 (MM603): 415 nM
- EC50 (MOG-G-CCM): 2350 nM
- EC50 (MOLM-13, MOLM-13): 46.3 nM
- EC50 (MOLP-8, MOLP-8): 132 nM
SMILES: NS(=O)(=O)OC[C@@H]1C[C@@H](n2ccc3c(N[C@H]4CCc5ccccc54)ncnc32)C[C@@H]1O [MLN4924]
